We go through two molecules from patent EP3016671B1, “ACTIVELY T[…] PROTEASE-RESISTANT PEPTIDES AS BBB SHUTTLES AND SHUTTLE-CARGO CONSTRUCTS” (Universitat de Barcelona, priority 2013, dated 2015).

Each structure is given as a SMILES string. Positions of bridges follow the written chain, without caps; N, C: chain ends. Residues, ends and D or L forms follow the SMILES beside them.

Data set [1] deals with bovine brain endothelial cells. The experiment in a line: Transport across the BBB, in vitro bovine cell assay (co-culture, transwell). Conditions: bovine cell model, 2 h, 37 °C, Ringer-HEPES pH 7.4; 200 µM (Example 21: 1.75 µM). The source says: (§1) The evaluation method chosen to test the compounds of formula (I) and (II) of the invention was a cell-based assay consisting of a co-culture of brain endothelial cells and astrocytes, which allows to evaluate or to predict the transport of compounds through the BBB. The co-culture method used was described by Gaillard and de Boer in 2008 (Gaillard, PJ et al. "2B-Trans technology: targeted drug delivery across the blood-brain barrier" Methods Mol Biol 2008, vol. 437 pp. 161-175) and consists in seeding of rat astrocytes in a side of a polycarbonate filter (transwell) and bovine brain endothelial cells on the other side of the filter. Under these conditions endothelial cells are able to reach the confluence mimicking the BBB. […] Is commonly used model for permeation studies and toxicity of compounds across the BBB.
(§2) The co-culture assay was used to determine the capacity of the constructs cargo-shuttle to cross the BBB. The apparent permeability of the compounds was measured in triplicate at a concentration of 200 µ M for Examples 1, 2, 3, 5, 10, 13, 15, 16, 17 and 19 and at a concentration of 1.75 µM for Example 21. All the assays were performed with transendothelial electrical resistance values equal or higher than 100 Ω · cm^2 and were carried out in the presence of lucifer yellow to assess the integrity of the cell membrane during the test. The permeability tests were performed in Ringer-HEPES buffer at pH 7.4. The compound of interest was dissolved in the buffer to the desired concentration.
(§3) Once the endothelial cells were confluent on the filters (transwells) these were washed with Ringer-HEPES buffer. The acceptor well was filled with 800 µ L of Ringer-HEPES buffer and the donor well with 200 µL of the solution of the compound to be studied. The system was incubated at 37 °C and 5% CO2 for 2 h. After that time the content of the acceptor and donor compartments were analyzed by HPLC-UV, direct ELISA or fluorescence (depending on cargo anchored to the shuttle). […] The apparent permeability was calculated using the following equation: Papp = (dQ/dt) * (1/A) * (1/CO) (cm/s), where (dQ/dt) is the amount of compound present in the compartment acceptor function of time (nmol/s). A is the area of the filter(cm2) and CO is the initial concentration of the compound applied in the donor compartment (nmol/mL).

Experiment in data set [2]: as above
Conditions: pH 7.4.
Source text: as §1, §2, §3

Data set [3] can be described thus: Stability of the shuttles in human serum. It counts as in vitro ADME. The following applies: 400 µM, HBSS, 37 °C, 90% human serum, 24 h. On the procedure:
Regarding to the stability study in human serum of the BBB-shuttle (examples 1, 2, 3 and 5), the peptides were incubated at a concentration of 400 µM in buffer HBSS at 37 °C in the presence of 90% human serum. At a range of times, 100 µL aliquots were collected to which methanol was added in order to precipitate the serum proteins. Samples were centrifuged, filtered and analyzed by HPLC-UV and MALDI-TOF MS to determine the degree of degradation of the BBB-shuttle. […] The half life of the derivative bearing a single disulfide bond was 3 h (examples 2), whereas that of the linear version was no more than 8 min.

Data set [4] concerns bovine brain endothelial cells. The experiment in a line: Evidences of active transport in the bovine cell model (NaN3 inhibition, saturation, 4 °C, abluminal-luminal). It counts as in vitro ADME. The following applies: for Relative transport: saturation. As to the method:
(§4) 1) NaN3 inhibition: Sodium azide (NaN3) is an inhibitor of the resipiratory pathway and, therefore, decreases energy-dependent processes such as transcytosis. […] 2) saturation: Three concentrations of the compound with SEQ ID NO9 were assayed following the procedure of the Example 28.
(§5) The results are consistent with a saturable transport mechanism considering the plateau region has been reached at 100 µM. 3) dramatic decrease in permeability at reduced temperature: The procedure of the Example 28 was followed until the endothelial cells were confluent. To perform the experiment, the filters (transwells) were washed with Ringer-HEPES buffer. The abluminal compartment was filled with 800 µL of Ringer-HEPES and the luminal compartment was filled with 200 µL of the compound with SEQ ID NO 9 in Ringer-HEPES (200 µM). The system was incubated at 4 °C and 5 % CO2 for 2 h. […] The permeability at 4 °C is 0.23±0.04)·10^-6 cm/s, which is dramatically lower (P < 0.0001, unpaired t-test) than at 37 °C. This low transport is consistent with an energy-dependent process. 4) luminal-abluminal transport > abluminal-luminal transport.: The procedure of the Example 28 was followed until the endothelial cells were confluent. […] The abluminal compartment (in this experiment the donor) was filled with 800 µL of the compound with SEQ ID NO 9 in Ringer-HEPES (200 µM) and the luminal compartment (in this experiment the acceptor) with 200 µL Ringer-HEPES.

Experiment in data set [5]: as above
It is filed as in vitro ADME. The following applies: bovine; 200 µM, 37 °C, 2 h, abluminal compartment as donor. On the procedure: as §4, §5

The nature of data set [6]: Solubility limit in phosphate buffer saline (dosing solution). It counts as physicochemical. Conditions: in 200 µL phosphate buffer saline. As to the method: (§6) • 1) In zebra fish: The assay was performed by Neuron Bio (Granada). The protocol was based on the assessment of the acute toxicity of substances on zebra fish (Danio rerio) using a static method. This short-term toxicity assay method replicated the guidelines of the document OECD Draft Guideline for the study of chemicals, Fish Embryo Toxicity (FET) Test (30 May, 2006). 5 concentrations were evaluated (4.6, 10, 22, 46 and 100 mg/L) in water containing 0.1% DMSO. A control group (vehicle: water and 0.1 % DMSO) and a group with 3,4-dicloroaniline were set up to make sure test conditions were reproducible. […] Apamin (SEQ ID NO:16) was dissolved in phosphate buffer saline (vehicle) so that 200 µL would contain 50 nmol of this peptide (corresponding to its LD50). Compound with SEQ ID NO:9 was dissolved in the same buffer so that 200 µL would contain 1200 nmol of this peptide (near the solubility limit). A first group of six mice (male, 20±2 g, Swiss white mice) were injected with 200 µL of apamin. A second group of six mice were injected with 200 µL of compound with SEQ ID NO:9. A third group of mice were injected with 200 µL of vehicle.

Data set [7] is described as follows: PAMPA assay (passive diffusion). Conditions: 400 µM, pH 7.4, 4 h, 20°C, four replicates. It counts as in vitro ADME. As to the method: The buffer was prepared from the concentrated solution by plON, following the manufacturer's instructions. The pH was adjusted to 7.4 using a solution of 0.5 M NaOH. The PAMPA sandwich was separated, and the donor well was filled with 195 µL of the compound with SEQ ID NO 9 (400 µM) solution and a stirring magnet was added. The acceptor plate was then placed into the donor plate. Next, 4 µL of the 20 mg/mL phospholipid mixture (PBLEP) in dodecane was added to the filter of each well, and 200 µL of buffer solution was added to each acceptor well. The plate was then covered. Four replicates were performed for each compound. The PAMPA plate was incubated for 4 h at 20°C and under saturated atmosphere in a GUT-BOXTM apparatus under an agitation vigorous enough to reduce the unstirred water layer (UWL) to 25 µm. After the incubation, the sandwich was separated, and an aliquot of each donor and acceptor well was analyzed by RP-HPLC-UV ad MALDI-TOF MS.
On the technique in general: PAMPA measures passive passage across an artificial lipid membrane.

In data set [8] the test system is mice. The experiment in a line: Acute toxicity (lethality) after intracaudal injection in mice. It is filed as in vivo, Swiss white mice. Conditions: six mice, observed up to 24 hours. As to the method: as §6
A further data set relates to zebra fish (Danio rerio). The experiment in a line: Acute toxicity in zebra fish, Fish Embryo Toxicity (FET) test. It counts as in vivo. Conditions: static method, 4.6, 10, 22, 46 and 100 mg/L in water containing 0.1% DMSO. As to the method:
as §6

Data set [9] deals with mice. Conditions: amount in 200 µL injected; cited from earlier work.

The term Papp denotes the rate of passage across a membrane or cell layer, normalised by area and donor concentration. A high value points to fast passage. Broadly, the Papp B→A is the apparent permeability from the basolateral to the apical side of a cell layer. For the molecule `CC(C)C[C@@H]1NC(=O)[C@H](C)NC(=O)[C@H]([C@@H](C)O)NC(=O)[C@H](CCC(=O)O)NC(=O)[C@@H]2CCCN2C(=O)[C@H](C)NC(=O)[C@H](CCCCN)NC(=O)[C@@H]2CSSC[C@@H](C(=O)N[C@@H](Cc3c[nH]cn3)C(N)=O)NC(=O)[C@H](C)NC(=O)[C@H](C)NC(=O)[C@H](C)NC(=O)[C@H](CSSC[C@H](N)C(=O)N[C@@H](CC(N)=O)C(=O)N2)NC1=O` [Example 1, H-Cys-Asn-Cys-Lys-Ala-Pro-Glu-Thr-Ala-Leu-Cys-Ala-Ala-Ala-Cys-His-NH2] (H-CNCKAPETALCAAACH-NH2; disulfide 1-11, 3-15), the “Transport (%) (2h)” value in data set [1] came to 3.2±0.3%. Besides, the Papp at 2 h in data set [2] (bovine) amounted to 2.7 ± 0.3 ×10⁻⁶ cm/s. For the same molecule, the “degradation in human serum” value in data set [3] is recorded as “No degradation”. Further, the “permeability at 4 °C” value in [4] (200 µM, 4 °C, 5 % CO2, 2 h, luminal to abluminal) is 0.23±0.04 ·10^-6 cm/s. The “transport after NaN3 treatment” value in [4] (30 min treatment with 1.5 mM sodium azide prior to the permeability assay) was “very significantly (p < 0.001) inhibited”. In data set [4] (concentration 100 µM), this molecule returned a Relative transport of 100±39. This molecule came in with a Relative transport in [4] (concentration 200 µM) of 110±6. Further, the Relative transport in data set [4] (concentration 500 µM) is given as 86±6. In addition, the Papp B→A at 2 h, 200 µM in data set [5] is 1.06 ± 0.03 ×10⁻⁶ cm/s. In addition, the solubility limit in data set [6] is recorded as ~1200 nmol. Besides, in data set [7], the “detection in PAMPA by HPLC-UV” value was “could not be detected” and the “detection in PAMPA by MALDI-TOF MS” value is given as “only in two out of four replicates was found”. In the data set on mice [8] (1200 nmol in 200 µL), the animals that died result is “no animal” and the “animals that showed any envenomation symptoms” value is “no animal”. The “lethal parameters of the embryos” value with zebra fish (Danio rerio) is “None of the lethal parameters studied in the embrios treated with the compound with SEQ ID NO:9 was different from those treated with the vehicle”.

As to `CC(C)C[C@@H]1NC(=O)[C@H](C)NC(=O)[C@H]([C@@H](C)O)NC(=O)[C@H](CCC(=O)O)NC(=O)[C@@H]2CCCN2C(=O)[C@H](C)NC(=O)[C@H](CCCCN)NC(=O)[C@@H]2CSSC[C@@H](C(=O)N[C@@H](CCC(N)=O)C(=O)N[C@@H](CCC(N)=O)C(=O)N[C@@H](Cc3cnc[nH]3)C(N)=O)NC(=O)[C@H](CCCNC(=N)N)NC(=O)[C@H](CCCNC(=N)N)NC(=O)[C@H](C)NC(=O)[C@H](CSSC[C@H](N)C(=O)N[C@@H](CC(N)=O)C(=O)N2)NC1=O` [Comparative example 1, H-Cys-Asn-Cys-Lys-Ala-Pro-Glu-Thr- Ala-Leu-Cys-Ala-Arg-Arg-Cys-Gln-Gln-His-NH2, reference compound], in data set [1], the “Transport (%) (2h)” value came out at 0.9±0.2%. The molecule further yielded a Papp in [2] of 0.8 ± 0.1 ×10⁻⁶ cm/s. Further, the LD50 in the data set on mice [9] is 50 nmol. Besides, in the data set with mice [8] (50 nmol in 200 µL), the animals that died entry is listed as “two” and the “animals that showed convulsions during the first hours” value is “All the animals”.
